# According to patent US9545387B2, “Composition and kit comprising piperazine derivatives and metformin, and use thereof in the treatment of diabetes” (METABOLYS, priority 2012, dated 2017):
# Legend:
# [1] = tested on: liver cells of rats fasting for 48 h; assay: metabolism of lactate and glutamine in liver cells of rats fasting for 48 h; type: cell-based, rat
# Method: […] Enzymatic assay of the consumption of lactate and glutamine was performed, the production of their metabolites was also analysed. Finally the ATP cell concentration was determined.
# Complete oxidation of a substrate was measured by the lowest CO2 value produced from one of its carbons. As a result, this carbon is found in greater quantity in non-volatile products (other than CO2) formed during the metabolism of this substrate.
# Complete oxidation of lactate can therefore be determined by measuring the production of 13CO2 from 2-13C-lactate.
# Complete oxidation of glutamine can be examined by measuring the production of 13CO2 from 3-13C-glutamine (Biochem. J., 2004, 378, 485-495).
# [2] = glycaemia and circulating insulin before and after a glucose load in STZ-N0a rats; type: in vivo; details: for Glycaemia, Time −60 mn / Insulin, Time −60 mn: time −60 min; for Glycaemia, Time 0 mn / Insulin, Time 0 mn: time 0 min; for Glycaemia, Time 30 mn / Insulin, Time 30 mn: time 30 min; for Glycaemia, Time 60 mn / Insulin, Time 60 mn: time 60 min; for Glycaemia, Time 90 mn / Insulin, Time 90 mn: time 90 min; for Glycaemia, Time 120 mn / Insulin, Time 120 mn: time 120 min
# Description: An increase in insulin secretion was noted solely when compound 2 caused an increases in the peripheral consumption of glucose by skeletal muscle (Tables 9 to 12 which give a mean of the results obtained). […] It is shown in Tables 11 and 12 that if there is no increase in muscle consumption of glucose, there is no increase in the level of circulating insulin.
# [3] = oral glucose tolerance test (OGTT) in normal Swiss mice fasting for 17 hours, additive effect with metformin; type: in vivo; details: metformin 300 mg/kg per os; for Glycaemia, Time −60 mn / Glycaemia, Time 0 mn / Glycaemia, Time 30 mn / Glycaemia, Time 60 mn / Glycaemia, Time 90 mn / Glycaemia, Time 120 mn: OGTT; for Glycaemia, Time −60 mn: given 1 h before glucose load, time −60 min; for Glycaemia, Time 0 mn: time 0 min; for Glycaemia, Time 30 mn: time 30 min; for Glycaemia, Time 60 mn: time 60 min; for Glycaemia, Time 90 mn: time 90 min; for Glycaemia, Time 120 mn: time 120 min
# [4] = 5 mM 2-13C-lactate + 0.5 mM compound 2, n = 4
# [5] = 5 mM 3-13C-glutamine + 0.5 mM compound 2, n = 4
# [6] = 5 mM glutamine + 2 mM compound 2, n = 6
# [7] = 5 mM lactate + 0.5 mM compound 2, n = 3
# [8] = 5 mM lactate + 2 mM compound 2, n = 6
# [9] = Table 11, compound 2, title 25 mg/kg (row prints 200 mg/kg)
# [10] = Table 12, compound 2, title 25 mg/kg (row prints 200 mg/kg)
# [11] = Table 2, compound 2 50 mg/kg per os
# [12] = Table 3, compound 3 50 mg/kg per os
# [13] = Table 4, compound 4 50 mg/kg per os
compound,measurement,setting,value
O=C(O)CCC(=O)c1ccc(OCCN2CCN(c3ccccn3)CC2)cc1 [Compound 2],reduction of the consumption of lactate,[1]; 5 mM 2-13C-lactate + 0.5 mM compound 2,10%
same,13CO2 production,[1]; [4],5.99 ± 0.09 μmoles/flask
same,ATP concentration,[1]; [4],188.4 ± 25.2 nanomoles per 6 precisely cut liver section
same,Glucose production,[1]; [4],4.69 ± 0.14 μmoles/flask
same,ATP concentration,[1]; [5],362.9 ± 53.3 (NS) nanomoles per 6 precisely cut liver sections
same,Glucose production,[1]; [5],6.05 ± 0.30 μmoles/flask
same,Production of 13CO2,[1]; [5],1.86 ± 0.28 μmoles/flask
same,ATP concentration,[1]; 5 mM glutamine + 2 mM compound 2,34.2 ± 7.6 nanomoles per 2 precisely cut liver sections
same,Complete oxidation,"[1]; 5 mM glutamine + 2 mM compound 2, consumption of glutamine − (2 * glucose + pyruvate + lactate + alanine + glutamate products)",0.59 ± 0.35* μmoles/flask
same,Consumption of substrate (—),[1]; [6],−2.77 ± 0.15 μmoles/flask
same,Glucose production,[1]; [6],0.78 ± 0.09 μmoles/flask
same,"Sum of labelling of non-volatile products from lactate metabolism, 1-13C-lactate",[1]; [7],1.36 ± 0.09*+ μmoles of carbon 13/flask
same,"Sum of labelling of non-volatile products from lactate metabolism, 2-13C-lactate",[1]; [7],4.94 ± 0.15 μmoles of carbon 13/flask
same,"Sum of labelling of non-volatile products from lactate metabolism, 3-13C-lactate",[1]; [7],4.06 ± 0.15*+ μmoles of carbon 13/flask
same,ATP concentration,[1]; 5 mM lactate + 2 mM compound 2,31.8 ± 8.0 nanomoles per 2 precisely cut liver sections
same,Complete oxidation,"[1]; 5 mM lactate + 2 mM compound 2, consumption of lactate − (2 * glucose + pyruvate + alanine products)",0.64 ± 0.30* μmoles/flask
same,NADH mitochondrial transport,"[1]; 5 mM lactate + 2 mM compound 2, lactate consumption minus twice glucose production",1.06 ± 0.33 μmoles/flask
same,Consumption of substrate (—),[1]; [8],−2.59 ± 0.34 μmoles/flask
same,Glucose production,[1]; [8],0.76 ± 0.13 μmoles/flask
same,Glycaemia AUC,"[2]; Table 9, compound 2 200 mg/kg",356
same,"Glycaemia, Time −60 mn","[2]; Table 9, compound 2 200 mg/kg, glucose load at 0 min",4.75 mmol/L
same,"Glycaemia, Time 0 mn","[2]; Table 9, compound 2 200 mg/kg",8.75 mmol/L
same,"Glycaemia, Time 30 mn","[2]; Table 9, compound 2 200 mg/kg",12.97 mmol/L
same,"Glycaemia, Time 60 mn","[2]; Table 9, compound 2 200 mg/kg",13.15 mmol/L
same,"Glycaemia, Time 90 mn","[2]; Table 9, compound 2 200 mg/kg",11.37 mmol/L
same,"Glycaemia, Time 120 mn","[2]; Table 9, compound 2 200 mg/kg",10.13 mmol/L
same,"Insulin, Time −60 mn","[2]; Table 10, compound 2 200 mg/kg, circulating insulin",0.47 ng/mL
same,"Insulin, Time 0 mn","[2]; Table 10, compound 2 200 mg/kg",0.41 ng/mL
same,"Insulin, Time 30 mn","[2]; Table 10, compound 2 200 mg/kg",0.70 ng/mL
same,"Insulin, Time 60 mn","[2]; Table 10, compound 2 200 mg/kg",0.59 ng/mL
same,"Insulin, Time 90 mn","[2]; Table 10, compound 2 200 mg/kg",0.54 ng/mL
same,"Insulin, Time 120 mn","[2]; Table 10, compound 2 200 mg/kg",0.53 ng/mL
same,Glycaemia AUC,[2]; [9],1048
same,"Glycaemia, Time 0 mn",[2]; [9],5.23 mmol/L
same,"Glycaemia, Time 30 mn",[2]; [9],11.15 mmol/L
same,"Glycaemia, Time 60 mn",[2]; [9],16.21 mmol/L
same,"Glycaemia, Time 90 mn",[2]; [9],14.36 mmol/L
same,"Glycaemia, Time 120 mn",[2]; [9],15.33 mmol/L
same,"Glycaemia, Time −60 mn",[2]; [9],5.12 mmol/L
same,"Insulin, Time 0 mn",[2]; [10],1.41 ng/mL
same,"Insulin, Time 30 mn",[2]; [10],1.76 ng/mL
same,"Insulin, Time 60 mn",[2]; [10],1.48 ng/mL
same,"Insulin, Time 90 mn",[2]; [10],1.61 ng/mL
same,"Insulin, Time 120 mn",[2]; [10],1.61 ng/mL
same,"Insulin, Time −60 mn",[2]; [10],1.11 ng/mL
same,"Glycaemia, Time −60 mn",[3]; [11],4.6 ± 0.4 mM/liter
same,"Glycaemia, Time 0 mn",[3]; [11],4.9 ± 0.2 mM/liter
same,"Glycaemia, Time 30 mn",[3]; [11],14.5 ± 1.4 mM/liter
same,"Glycaemia, Time 60 mn",[3]; [11],10.4 ± 0.5 mM/liter
same,"Glycaemia, Time 90 mn",[3]; [11],8.3 ± 1.1 mM/liter
same,"Glycaemia, Time 120 mn",[3]; [11],6.8 ± 0.6 mM/liter
same,drop of glycaemia area under curve after glucose load,"[3]; study 2, compound 2 50 mg/kg per os",40.5%
COc1cccc(N2CCN(CCOc3ccc(C(=O)CCC(=O)O)cc3)CC2)c1 [Compound 3],"Glycaemia, Time −60 mn",[3]; [12],4.4 ± 0.3 mM/liter
same,"Glycaemia, Time 0 mn",[3]; [12],5.5 ± 0.3 mM/liter
same,"Glycaemia, Time 30 mn",[3]; [12],11.3 ± 0.6 mM/liter
same,"Glycaemia, Time 60 mn",[3]; [12],9.7 ± 0.4 mM/liter
same,"Glycaemia, Time 90 mn",[3]; [12],7.4 ± 0.3 mM/liter
same,"Glycaemia, Time 120 mn",[3]; [12],7.2 ± 0.5 mM/liter
same,drop of glycaemia area under curve after glucose load,"[3]; study 3, compound 3 50 mg/kg per os",54.9%
COc1ccccc1N1CCN(CCOc2ccc(CCCCC(=O)O)cc2)CC1 [Compound 4],"Glycaemia, Time −60 mn",[3]; [13],3.4 ± 0.2 mM/liter
same,"Glycaemia, Time 0 mn",[3]; [13],4.0 ± 0.3 mM/liter
same,"Glycaemia, Time 30 mn",[3]; [13],18.6 ± 3.2 mM/liter
same,"Glycaemia, Time 60 mn",[3]; [13],13.3 ± 1.5 mM/liter
same,"Glycaemia, Time 90 mn",[3]; [13],8.8 ± 1.0 mM/liter
same,"Glycaemia, Time 120 mn",[3]; [13],6.8 ± 1.0 mM/liter
same,drop of glycaemia area under curve after glucose load,"[3]; study 4, compound 4 50 mg/kg per os",18.7%
